The values below are quoted from earlier work in patent publication US11439647B2 (Janssen Pharmaceutica NV, priority 2020, dated 2022).

Each structure is given as a SMILES string.

Turning to `CCCCCCCCCCCCCCCC(=O)OC1CCCn2c1nc(C)c(CCN1CCC(c3noc4cc(F)ccc34)CC1)c2=O` (racemic) [paliperidone palmitate, (±)-3-[2-[4-(6-fluoro-1,2-benzisoxazol-3-yl)-1-piperidinyl]ethyl]-6,7,8,9-tetrahydro-2-methyl-4-oxo-4H-pyrido[1,2-c]pyrimidin-9-yl hexadecanoate], the water solubility entry was “extreme low”.
